Results published in US20260274832A1, “COMPOUNDS AND THEIR USE IN TREATING CANCER” (ASTRAZENECA AB, priority 2023, published 2026).

Columns and labels:
[1] = biological target: T1, AR (AR-full length) in LNCaP cells (Homo sapiens, UniProt P10275, T878A); assay: LNCaP Androgen Receptor Imaging Assay (immunofluorescence of endogenous nuclear AR); type: cell-based; conditions: 24 h incubation; for DC50: concentration giving 50% of maximum degradation of AR per curve fit, single experiment or average of two or more; for Dmax: LNCaP, maximum degradation observed, normalized as % of positive control (prior art AR PROTAC at 3 μM)
T1 construct: the prostate cancer cell line LNCaP (expressing AR-full length); endogenous in cells; host or cells: LNCaP
T1 sequence (P10275 whole entry T878A): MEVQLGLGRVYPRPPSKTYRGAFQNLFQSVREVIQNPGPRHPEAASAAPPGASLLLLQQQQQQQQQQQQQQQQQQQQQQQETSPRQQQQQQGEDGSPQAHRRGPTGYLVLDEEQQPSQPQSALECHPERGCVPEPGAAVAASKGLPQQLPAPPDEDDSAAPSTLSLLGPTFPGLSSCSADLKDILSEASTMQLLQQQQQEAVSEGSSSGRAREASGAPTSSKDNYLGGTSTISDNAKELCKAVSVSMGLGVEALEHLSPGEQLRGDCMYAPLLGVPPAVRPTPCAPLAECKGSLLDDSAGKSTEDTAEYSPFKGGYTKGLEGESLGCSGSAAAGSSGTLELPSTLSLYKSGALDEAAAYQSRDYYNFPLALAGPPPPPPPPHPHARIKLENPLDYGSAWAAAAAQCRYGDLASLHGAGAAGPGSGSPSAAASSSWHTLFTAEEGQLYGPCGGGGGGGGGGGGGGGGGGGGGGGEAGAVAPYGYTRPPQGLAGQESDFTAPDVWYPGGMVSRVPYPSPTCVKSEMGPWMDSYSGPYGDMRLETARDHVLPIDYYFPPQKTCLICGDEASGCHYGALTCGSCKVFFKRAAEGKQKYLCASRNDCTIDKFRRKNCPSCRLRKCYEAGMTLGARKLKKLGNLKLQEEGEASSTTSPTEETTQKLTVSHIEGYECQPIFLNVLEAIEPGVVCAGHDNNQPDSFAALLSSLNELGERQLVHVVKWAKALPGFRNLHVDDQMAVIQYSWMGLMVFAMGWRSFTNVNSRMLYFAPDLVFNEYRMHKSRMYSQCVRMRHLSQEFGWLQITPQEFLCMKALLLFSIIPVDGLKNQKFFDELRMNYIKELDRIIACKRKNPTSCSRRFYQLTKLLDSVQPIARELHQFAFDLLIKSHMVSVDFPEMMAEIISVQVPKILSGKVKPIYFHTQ
T1 sequence (Q96SW2 whole entry partner): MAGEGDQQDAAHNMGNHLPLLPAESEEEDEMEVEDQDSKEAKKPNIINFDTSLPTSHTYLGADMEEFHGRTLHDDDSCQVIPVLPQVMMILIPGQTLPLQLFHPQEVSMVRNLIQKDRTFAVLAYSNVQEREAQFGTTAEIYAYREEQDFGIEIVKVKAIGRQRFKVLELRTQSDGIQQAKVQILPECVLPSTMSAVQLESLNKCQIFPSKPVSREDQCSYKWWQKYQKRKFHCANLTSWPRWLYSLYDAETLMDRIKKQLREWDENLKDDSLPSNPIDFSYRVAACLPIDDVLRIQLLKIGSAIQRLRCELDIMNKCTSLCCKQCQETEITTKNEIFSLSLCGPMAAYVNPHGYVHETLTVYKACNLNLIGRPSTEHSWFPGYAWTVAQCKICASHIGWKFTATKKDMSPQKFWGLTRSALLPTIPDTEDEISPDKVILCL
Procedure, shortened: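 Endogenous nuclear AR level was imaged by immunofluorescence after 24 h compound exposure (12-point dose response, 0.3% DMSO, 37° C./5% CO2) in LNCaP cells. Data were expressed as % of a 3 μM prior-art AR PROTAC control and fitted (bell fit where a hook appeared) to give DC50 and maximum degradation Dmax.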

[2] = biological target: T2, AR (L702H) in LNCaP cells (Homo sapiens, UniProt P10275, L702H/T878A); assay: LNCaP Androgen Receptor L702H Imaging Assay (LNCaP cells engineered by CRISPR/Cas9); type: cell-based; conditions: LNCaP cells with AR L702H mutation, 24 h incubation; for DC50: concentration giving 50% of maximum degradation of AR (L702H) per curve fit; for Dmax: LNCaP, maximum degradation observed, normalized as % of positive control
T2 construct: engineered to introduce the mutation L702H into the AR gene using CRISPR/Cas9; endogenous in cells; host or cells: LNCaP cells edited by CRISPR/Cas9 at the AR gene
T2 sequence (P10275 whole entry L702H/T878A): as the sequence (P10275 whole entry T878A) above, with L702H counted along it
T2 sequence (Q96SW2 whole entry partner): as the sequence (Q96SW2 whole entry partner) above
Procedure, shortened: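 AR (L702H) degradation, expressed as DC50 and Dmax from curve fits normalized to a positive degrader control, was measured by high-content imaging of anti-AR immunofluorescence. The engineered LNCaP line was dosed over 12 concentrations for 24 h, 0.3% DMSO final, before PFA fixation.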

COc1cc(N2CCN(CC3CCN(c4ccc(C5CCN(c6ccc(C)c7c(C#N)c[nH]c67)CC5)cc4)CC3)CC2)cc2c1C(=O)N(C1CCC(=O)NC1=O)C2 (centres unmarked) [Example 15, 7-(4-{4-[4-({4-[2-(2,6-Dioxopiperidin-3-yl)-7-methoxy-1-oxo-2,3-dihydro-1H-isoindol-5-yl]piperazin-1-yl}methyl)piperidin-1-yl]phenyl}piperidin-1-yl)-4-methyl-1H-indole-3-carbonitrile]
DC50 [1]: 9 nM | Dmax [1]: 97% | DC50 [2]: 24 nM | Dmax [2]: 85%

COc1cc(N2CCN(CC3CCN(c4ccc(C5CCN(c6ccc(F)c7c(C#N)c[nH]c67)CC5)cc4)CC3)CC2)cc2c1C(=O)N(C1CCC(=O)NC1=O)C2 (centres unmarked) [Example 20, 7-(4-{4-[4-({4-[2-(2,6-Dioxopiperidin-3-yl)-7-methoxy-1-oxo-2,3-dihydro-1H-isoindol-5-yl]piperazin-1-yl}methyl)piperidin-1-yl]phenyl}piperidin-1-yl)-4-fluoro-1H-indole-3-carbonitrile]
DC50 [1]: 9 nM | Dmax [1]: 94% | DC50 [2]: 8 nM | Dmax [2]: 101%

N#Cc1c[nH]c2c(N3CCC[C@H](c4ccc(N5CCC(CN6CCN(c7ccc8c(c7)CN(C7CCC(=O)NC7=O)C8=O)CC6)CC5)cc4)C3)ccc(Cl)c12 (stereo partly drawn) [Example 21, 4-Chloro-7-[(3R)-3-{4-[4-({4-[2-(2,6-dioxopiperidin-3-yl)-1-oxo-2,3-dihydro-1H-isoindol-5-yl]piperazin-1-yl}methyl)piperidin-1-yl]phenyl}piperidin-1-yl]-1H-indole-3-carbonitrile]
DC50 [1]: 8 nM | Dmax [1]: 92% | DC50 [2]: 7 nM | Dmax [2]: 103%

N#Cc1c[nH]c2c(N3CCC(c4ccc(N5CCN(CC6CCN(c7ccc8c(c7)CN(C7CCC(=O)NC7=O)C8=O)CC6)CC5)cc4)CC3)ccc(F)c12 (centres unmarked) [Example 22]
DC50 [1]: 14 nM | Dmax [1]: 80% | DC50 [2]: 23 nM | Dmax [2]: 81%

N#Cc1c[nH]c2c(N3CCC[C@@H](c4ccc(N5CCC(CN6CCC(n7ccc8c(N9CCC(=O)NC9=O)cccc87)CC6)CC5)cc4)C3)ccc(F)c12 [Example 23, 7-[(3S)-3-{4-[4-({4-[4-(2,4-Dioxo-1,3-diazinan-1-yl)-1H-indol-1-yl]piperidin-1-yl}methyl)piperidin-1-yl]phenyl}piperidin-1-yl]-4-fluoro-1H-indole-3-carbonitrile]
DC50 [1]: 12 nM | Dmax [1]: 100% | DC50 [2]: 57 nM | Dmax [2]: 94%

N#Cc1c[nH]c2c(N3CCC[C@@H](c4ccc(N5CCC(CN6CCN(c7ccc8c(c7)CN(C7CCC(=O)NC7=O)C8=O)CC6)CC5)cc4)C3)ccc(F)c12 (stereo partly drawn) [Example 24, 7-[(3S)-3-{4-[4-({4-[2-(2,6-dioxopiperidin-3-yl)-1-oxo-2,3-dihydro-1H-isoindol-5-yl]piperazin-1-yl}methyl)piperidin-1-yl]phenyl}piperidin-1-yl]-4-fluoro-1H-indole-3-carbonitrile]
DC50 [1]: 6 nM | Dmax [1]: 100% | DC50 [2]: 18 nM | Dmax [2]: 83%

N#Cc1n[nH]c2c(N3CCC[C@H](c4ccc(N5CCC(CN6CCC(n7ccc8c(N9CCC(=O)NC9=O)cccc87)CC6)CC5)cc4)C3)ccc(Cl)c12 [Example 25, 4-Chloro-7-[(3R)-3-{4-[4-({4-[4-(2,4-dioxo-1,3-diazinan-1-yl)-1H-indol-1-yl]piperidin-1-yl}methyl)piperidin-1-yl]phenyl}piperidin-1-yl]-1H-indazole-3-carbonitrile]
DC50 [1]: 6 nM | Dmax [1]: 92% | DC50 [2]: 4 nM | Dmax [2]: 104%

N#Cc1c[nH]c2c(N3CCC[C@H](c4ccc(N5CCC(CN6CCC(n7ccc8c(N9CCC(=O)NC9=O)cccc87)CC6)CC5)cc4)C3)ccc(Cl)c12 [Example 26, 4-Chloro-7-[(3R)-3-{4-[4-({4-[4-(2,4-dioxo-1,3-diazinan-1-yl)-1H-indol-1-yl]piperidin-1-yl}methyl)piperidin-1-yl]phenyl}piperidin-1-yl]-1H-indole-3-carbonitrile]
DC50 [1]: 9 nM | Dmax [1]: 92% | DC50 [2]: 7 nM | Dmax [2]: 106%

COc1cc(N2CCN(CCCCOc3ccc(C4CCN(c5ccc(C)c6c(C#N)c[nH]c56)CC4)cc3)CC2)cc2c1C(=O)N(C1CCC(=O)NC1=O)C2 (centres unmarked) [Example 27, 7-{4-[4-(4-{4-[2-(2,6-Dioxopiperidin-3-yl)-7-methoxy-1-oxo-2,3-dihydro-1H-isoindol-5-yl]piperazin-1-yl}butoxy)phenyl]piperidin-1-yl}-4-methyl-1H-indole-3-carbonitrile]
DC50 [1]: 14 nM | Dmax [1]: 99% | DC50 [2]: 27 nM | Dmax [2]: 75%

Cc1ccc(N2CCC(c3ccc(OCCCCN4CCN(c5ccc6c(c5)CN(C5CCC(=O)NC5=O)C6=O)CC4)cc3)CC2)c2[nH]cc(C#N)c12 (centres unmarked) [Example 28, 7-{4-[4-(4-{4-[2-(2,6-dioxopiperidin-3-yl)-1-oxo-2,3-dihydro-1H-isoindol-5-yl]piperazin-1-yl}butoxy)phenyl]piperidin-1-yl}-4-methyl-1H-indole-3-carbonitrile]
DC50 [1]: 5 nM | Dmax [1]: 96% | DC50 [2]: 23 nM | Dmax [2]: 83%

Cc1ccc(N2CCC(c3ccc(OCCCCN4CCC(n5ccc6c(N7CCC(=O)NC7=O)cccc65)CC4)cc3)CC2)c2[nH]cc(C#N)c12 [Example 29, 7-{4-[4-(4-{4-[4-(2,4-Dioxo-1,3-diazinan-1-yl)-1H-indol-1-yl]piperidin-1-yl}butoxy)phenyl]piperidin-1-yl}-4-methyl-1H-indole-3-carbonitrile]
DC50 [1]: 79 nM | Dmax [1]: 94% | DC50 [2]: 60 nM | Dmax [2]: 74%

COc1nc(N2CCN(CC3CCN(c4ccc(C5CCN(c6ccc(C)c7c(C#N)c[nH]c67)CC5)cc4)CC3)CC2)cc2c1C(=O)N(C1CCC(=O)NC1=O)C2 (centres unmarked) [Example 30, 7-(4-{4-[4-({4-[2-(2,6-Dioxopiperidin-3-yl)-4-methoxy-3-oxo-2,3-dihydro-1H-pyrrolo[3,4-c]pyridin-6-yl]piperazin-1-yl}methyl)piperidin-1-yl]phenyl}piperidin-1-yl)-4-methyl-1H-indole-3-carbonitrile]
DC50 [1]: 25 nM | Dmax [1]: 98% | DC50 [2]: 83 nM | Dmax [2]: 83%

COc1nc(N2CCN(CCCCOc3ccc(C4CCN(c5ccc(C)c6c(C#N)c[nH]c56)CC4)cc3)CC2)cc2c1C(=O)N(C1CCC(=O)NC1=O)C2 (centres unmarked) [Example 31, 7-{4-[4-(4-{4-[2-(2,6-Dioxopiperidin-3-yl)-4-methoxy-3-oxo-2,3-dihydro-1H-pyrrolo[3,4-c]pyridin-6-yl]piperazin-1-yl}butoxy)phenyl]piperidin-1-yl}-4-methyl-1H-indole-3-carbonitrile]
DC50 [1]: 8 nM | Dmax [1]: 94% | DC50 [2]: 22 nM | Dmax [2]: 88%

COc1nc(N2CCN(CCCCOc3ccc(C4CCN(c5ccc(Cl)c6c(C#N)c[nH]c56)CC4)cc3)CC2)cc2c1C(=O)N(C1CCC(=O)NC1=O)C2 (centres unmarked) [Example 32, 4-Chloro-7-{4-[4-(4-{4-[2-(2,6-dioxopiperidin-3-yl)-4-methoxy-3-oxo-2,3-dihydro-1H-pyrrolo[3,4-c]pyridin-6-yl]piperazin-1-yl}butoxy)phenyl]piperidin-1-yl}-1H-indole-3-carbonitrile]
DC50 [1]: 5 nM | Dmax [1]: 99% | DC50 [2]: 10 nM | Dmax [2]: 100%

N#Cc1c[nH]c2c(N3CCC(c4ccc(OCCCCN5CCC(n6ccc7c(N8CCC(=O)NC8=O)cccc76)CC5)cc4)CC3)ccc(F)c12 [Example 33, 7-{4-[4-(4-{4-[4-(2,4-Dioxo-1,3-diazinan-1-yl)-1H-indol-1-yl]piperidin-1-yl}butoxy)phenyl]piperidin-1-yl}-4-fluoro-1H-indole-3-carbonitrile]
DC50 [1]: 12 nM | Dmax [1]: 97% | DC50 [2]: 33 nM | Dmax [2]: 90%

COc1nc(N2CCN(CC3CCN(c4ccc(C5CCN(c6ccc(Cl)c7c(C#N)c[nH]c67)CC5)cc4)CC3)CC2)cc2c1C(=O)N(C1CCC(=O)NC1=O)C2 (centres unmarked) [Example 34, 4-Chloro-7-(4-{4-[4-({4-[2-(2,6-dioxopiperidin-3-yl)-4-methoxy-3-oxo-2,3-dihydro-1H-pyrrolo[3,4-c]pyridin-6-yl]piperazin-1-yl}methyl)piperidin-1-yl]phenyl}piperidin-1-yl)-1H-indole-3-carbonitrile]
DC50 [1]: 7 nM | Dmax [1]: 98% | DC50 [2]: 12 nM | Dmax [2]: 102%

COc1nc(N2CCN(CC3CCN(c4ccc(C5CCN(c6ccc(F)c7c(C#N)c[nH]c67)CC5)cc4)CC3)CC2)cc2c1C(=O)N(C1CCC(=O)NC1=O)C2 (centres unmarked) [Example 37, 7-(4-{4-[4-({4-[2-(2,6-Dioxopiperidin-3-yl)-4-methoxy-3-oxo-2,3-dihydro-1H-pyrrolo[3,4-c]pyridin-6-yl]piperazin-1-yl}methyl)piperidin-1-yl]phenyl}piperidin-1-yl)-4-fluoro-1H-indole-3-carbonitrile]
DC50 [1]: 15 nM | Dmax [1]: 90% | DC50 [2]: 11 nM | Dmax [2]: 100%
